Experiment: Franz cell penetration study through pig skin stratum corneum/epidermis membrane
Assay type: in vitro ADME
Conditions: for Cumulative penetration of spironolactone through stratum corneum/epidermis: formulation of Table 6a, receptor phosphate buffer pH 7.4
Method: The functionality of the formulation was tested by evaporating the anti-solvent ethyl acetate. […] This formulation was used for penetration testing. When applied to the skin, spironolactone is intended to penetrate through the statum corneum into epidermis/dermis and not through the skin.
In this set-up, dermis was removed from full thickness pig skin and the remaining membrane consisting of stratum corneum and epidermis was mounted in the cell. The receptor fluid was phosphate buffer at pH 7.4 and 32° C. An amount of the experimental formulation corresponding to 50 mg of product and 1.5 mg of active substance after evaporation was applied. […] The experiment was performed at 34° C. and analysis of spironolactone was performed by HPLC.

[1] = after 6 hours, 1.5 mg of active substance applied

## CC(=O)S[C@@H]1CC2=CC(=O)CC[C@]2(C)[C@H]2CC[C@@]3(C)[C@@H](CC[C@@]34CCC(=O)O4)[C@H]12 [Spironolactone]
[1]
  amount of spironolactone passed the skin membrane: 0.5 mg
  spironolactone passed the skin membrane, % of the dose: 33%
Time 0 h
  Cumulative penetration of spironolactone through stratum corneum/epidermis: 0 μg/cm^2
Time 2 h
  Cumulative penetration of spironolactone through stratum corneum/epidermis: 281 μg/cm^2
Time 4 h
  Cumulative penetration of spironolactone through stratum corneum/epidermis: 381 μg/cm^2
Time 6 h
  Cumulative penetration of spironolactone through stratum corneum/epidermis: 440 μg/cm^2
Time 24 h
  Cumulative penetration of spironolactone through stratum corneum/epidermis: 466 μg/cm^2

From patent US20130324502A1, “NOVEL FORMULATIONS FOR DERMAL, TRANSDERMAL AND MUCOSAL USE 1” (MOBERG PHARMA AB, priority 2011, published 2013)
